What was measured:
MR49F = test: animal or person; format: functional; conditions: Homo sapiens, po, 336 h, read-out: TGI
Description: Antitumor activity against human MR49F cells xenografted in NSG cells assessed as tumor growth inhibition at 100 mg/kg/day, po for 14 days and measured twice weekly relative to control

in vitro = conditions: mouse, microsomes
Description: Half life in mouse liver microsomes at 50 uM in presence of cofactors for phase 1 and 2 metabolism

[1] = mouse, microsomes, 50 µM

Row | SMILES | inhibition in vivo at 100 mg/kg/day (MR49F) [%] | also measured
1 | C[C@](O)(Cn1ccc2cc(F)c(-c3ccccc3)cc21)C(=O)Nc1ccc(C#N)c(Cl)c1 | 40 to 60 | –
2 | C[C@](O)(Cn1ccc2c(F)cccc21)C(=O)Nc1ccc(C#N)c(Cl)c1 | 40 to 60 | –
3 | C[C@](O)(CN1CCc2cc(F)ccc21)C(=O)Nc1ccc(C#N)c(Cl)c1 | – | half-life at 50 µM (in vitro): 9.16 min
4 | C[C@](O)(COc1ccc(C#N)cc1)C(=O)Nc1ccc(C#N)c(C(F)(F)F)c1 [ENOBOSARM] | – | CLH [1]: 1400 µL/min/mg
